We go through 26 compounds from patent US8569495B2, “Anthelmintic agents and their use” (Intervet International B.V., priority 2007, dated 2013).

The test system of the first test is Haemonchus contortus. Description: Efficacy against Haemonchus contortus in sheep. To be noted: 10 mg/kg, oral, single treatment 35 days after infection, necropsy 7 days after treatment. In kind it is in vivo. As to the method: Anthelmintic effects of compounds of this invention were tested in vivo using Haemonchus contortus in sheep. The sheep were orally infected with approximately 5,000 third-stage larvae of Haemonchus contortus. Thirty-five days after infection, the sheep in the treatment groups were treated once orally or subcutaneously at a dose of 2, 5, 10, and/or 50 mg per kg bodyweight. Seven days after treatment, the sheep were necropsied, and the worm burden in the abomasum was determined. The efficacy was defined as the reduction of the mean worm count in the infected sheep of the treatment groups in comparison to the infected sheep in the untreated negative control group.
As for `CN(c1ccc([N+](=O)[O-])c(C(F)(F)F)c1)[C@H]1CC[C@H](OCC(=O)N2CCN(c3ccc(C(F)(F)F)cc3)CC2)CC1` [Example 12, 2-{trans-4-[methyl(4-nitro-3-trifluoromethyl-phenyl)-amino]-cyclohexyloxy}-1-[4-(4-trifluoromethyl-phenyl)-piperazin-1-yl]-ethanone], the “% Reduction in H. contortus count” value is recorded as 53%.
Turning to `CN(CC1CCN(c2ccc(C(F)(F)F)cc2)CC1)C(=O)[C@H]1CC[C@H](Nc2ccc([N+](=O)[O-])c(C(F)(F)F)c2)CC1` [Example 57, trans-N-methyl-4-(4-nitro-3-(trifluoromethyl)phenylamino)-N-((1-(4-(trifluoromethyl)phenyl)piperidin-4-yl)methyl)cyclohexanecarboxamide], the “% Reduction in H. contortus count” value stood at 83%.

Still in this test, the particulars now being: 10 mg/kg, subcutaneous, single treatment 35 days after infection, necropsy 7 days after treatment.
On to `CN(c1ccc([N+](=O)[O-])c(C(F)(F)F)c1)[C@H]1CC[C@H](OCC(=O)N2CCN(c3ccc(C(F)(F)F)cc3)CC2)CC1` [Example 12, 2-{trans-4-[methyl(4-nitro-3-trifluoromethyl-phenyl)-amino]-cyclohexyloxy}-1-[4-(4-trifluoromethyl-phenyl)-piperazin-1-yl]-ethanone], for which the “% Reduction in H. contortus count” value came out at 0%.
The same measure, in the same setting: the value for `CN(CC1CCN(c2ccc(C(F)(F)F)cc2)CC1)C(=O)[C@H]1CC[C@H](Nc2ccc([N+](=O)[O-])c(C(F)(F)F)c2)CC1` [Example 57, trans-N-methyl-4-(4-nitro-3-(trifluoromethyl)phenylamino)-N-((1-(4-(trifluoromethyl)phenyl)piperidin-4-yl)methyl)cyclohexanecarboxamide] was 0%.

Another test deals with Haemonchus contortus (L4), isolate resistant to benzimidazoles and ivermectin and anthelmintic-sensitive isolate. Description: In vitro resistance-breaking activity against Haemonchus contortus L4, resistant versus sensitive isolate (MEC). To be noted: isolate resistant to benzimidazoles and ivermectin vs sensitive isolate. As to the method: Anthelmintic resistance-breaking effects of compounds of this invention were tested in vitro using larval stage 4 (“L4”) of the parasitic nematode species Haemonchus contortus (Barber's pole worm in ruminants). One isolate of Haemonchus contortus with a resistance to benzimidazoles and ivermectin was tested in comparison to the anthelmintic-sensitive isolate of Haemonchus contortus. When conducting these experiments, various concentrations of the compounds were incubated in 96-well microtiter plates. Parasites were then distributed at 20 larvae per well. The anthelmintic effects were classified by microscopic examination. The microscopic examination included assessing mortality, damage, motility, progression of development, and neutral red uptake by the larvae in comparison to a DMSO-control and standard anthelmintics. The anthelmintic effects were defined by the minimum effective concentration (“MEC”).
For `CN(CC1CCN(c2ccc(C(F)(F)F)cc2)CC1)C(=O)[C@H]1CC[C@H](Nc2ccc([N+](=O)[O-])c(C(F)(F)F)c2)CC1` [Example 57, trans-N-methyl-4-(4-nitro-3-(trifluoromethyl)phenylamino)-N-((1-(4-(trifluoromethyl)phenyl)piperidin-4-yl)methyl)cyclohexanecarboxamide], the “activity against the resistant isolate compared with the sensitive isolate of Haemonchus contortus” value is “same activity”.

The subject of the next test is Ascaridia galli (L3) and Oesophagostomum dentatum (L3 and L4). Description: In vitro anthelmintic activity against larval stages of Ascaridia galli and Oesophagostomum dentatum (MEC). The settings on record: Ascaridia galli, in vitro; A. galli L3, O. dentatum L3 and L4; 20 larvae per well; microscopic examination; read-out: minimum effective concentration (MEC) against one or more of the tested nematodes.
For `CN(CC1CCC(Nc2ccc([N+](=O)[O-])c(C(F)(F)F)c2)CC1)C(=O)N1CCN(c2ccc(C(C)(C)C)cc2)CC1` (stereo not shown) [Example 141], the minimal effective concentration is less than 1 µM.
For the compound `O=C(NCC1CCC(Nc2ccc([N+](=O)[O-])c(C(F)(F)F)c2)CC1)C1CCN(c2ccc(Cl)cc2)CC1` (stereo not shown) [Example 107], the minimal effective concentration was less than 7 µM.
Regarding `Cc1cc(N[C@H]2CC[C@H](OCC(=O)N3CCN(c4ccc(Cl)cc4)CC3)CC2)ccc1[N+](=O)[O-]` [Example 241], the minimal effective concentration was less than 1 µM.
Still for that read-out and setting: with `O=C(NCC1CCN(c2ccc(C(F)(F)F)cc2)CC1)C1CCC(Nc2ccc([N+](=O)[O-])c(C(F)(F)F)c2)CC1` (stereo not shown) [Example 120] the figure was less than 1 µM; with `Cc1ccc(N2CCN(C(=S)COC3CCC(Nc4ccc([N+](=O)[O-])c(C(F)(F)F)c4)CC3)CC2)cc1` (stereo not shown) [Example 222], less than 1 µM; with `CCOc1ccc(N2CCC(CNC(=O)C3CCC(Nc4ccc([N+](=O)[O-])c(C(F)(F)F)c4)CC3)CC2)cc1` (stereo not shown) [Example 125], less than 1 µM.
Same read-out and setting: the value for `O=[N+]([O-])c1ccc(NC2CCC(OCCN3CCN(c4ccc(C(F)(F)F)cc4)CC3)CC2)cc1C(F)(F)F` (stereo not shown) [Example 119] was less than 1 µM; that for `COc1ccc(N2CCN(C(=S)COC3CCC(Nc4ccc([N+](=O)[O-])c(C(F)(F)F)c4)CC3)CC2)cc1OC` (stereo not shown) [Example 207] was less than 1 µM.
The same measure, in the same setting: the value for `COc1cc(N[C@H]2CC[C@H](OCC(=O)N3CCN(c4ccc(C(F)(F)F)cc4)CC3)CC2)ccc1[N+](=O)[O-]` [Example 234] was less than 1 µM.
With `O=C(COC1CCC(Nc2ccc([N+](=O)[O-])c(C(F)(F)F)c2)CC1)N1CCCN(c2ccc(C(F)(F)F)cc2)CC1` (stereo not shown) [Example 149], the minimal effective concentration was less than 1 µM.

Staying with this test, now noted: Ascaridia galli, in vitro; A. galli L3, O. dentatum L3 and L4; 20 larvae per well; microscopic examination; read-out: minimum effective concentration (MEC) against two or more of the tested nematodes.
Take `O=C(COC1CCC(Nc2ccc([N+](=O)[O-])c(C(F)(F)F)c2)CC1)N1CCC(Nc2ccc([N+](=O)[O-])c(C(F)(F)F)c2)CC1` (stereo not shown) [Example 189]: the minimal effective concentration is less than 1 µM.
Same read-out and setting: with `N#Cc1ccc(NC2CCC(OCC(=O)N3CCCN(c4ccc(SC(F)(F)F)cc4)CC3)CC2)cc1C(F)(F)F` (stereo not shown) [Example 160] the figure was less than 1 µM.
The same measure, in the same setting: the value for `N#Cc1ccc(N2CCN(C(=O)COC3CCC(Nc4ccc([N+](=O)[O-])c(C(F)(F)F)c4)CC3)CC2)cc1C(F)(F)F` (stereo not shown) [Example 64] was less than 1 µM; that for `CC(C)(C)c1ccc(N2CCN(C(=O)COC3C=C[C@@H](Nc4ccc([N+](=O)[O-])c(C(F)(F)F)c4)C3)CC2)cc1` (stereo partly shown) [Example 259] was less than 1 µM; that for `CC(C)(C)c1ccc(N2CCN(C(=O)COC3CCC(Nc4ccc(SC(F)(F)F)cc4)CC3)CC2)cc1` (stereo not shown) [Example 103] was less than 1 µM.
Still for that read-out and setting: the value for `O=C(NCC1CCN(c2ccc(C(F)(F)F)cc2)CC1)C1CCC(Nc2ccc([N+](=O)[O-])c(C(F)(F)F)c2)CC1` (stereo not shown) [Example 120] was less than 1 µM; that for `COc1cc(N[C@H]2CC[C@H](OCC(=O)N3CCN(c4ccc(C(C)(C)C)cc4)CC3)CC2)ccc1[N+](=O)[O-]` [Example 249] was less than 1 µM.
As to `CC(C)(C)c1ccc(N2CCC(C(=O)NC[C@H]3CC[C@H](Nc4ccc([N+](=O)[O-])c(C(F)(F)F)c4)CC3)CC2)cc1` [Example 54, 1-(4-tert-butyl-phenyl)-N-[trans-4-(4-nitro-3-trifluoromethyl-phenylamino)-cyclohexylmethyl]-piperidine-4-carboxamide], the minimal effective concentration is less than 1 µM.
Still for that read-out and setting: the value for `O=[N+]([O-])c1ccc(NC2CCC(CCC(=S)N3CCN(c4ccc(C(F)(F)F)cc4)CC3)CC2)cc1C(F)(F)F` (stereo not shown) [Example 213] was less than 1 µM; that for `CC(C)COc1ccc(N2CCN(C(=O)COC3CCC(Nc4ccc([N+](=O)[O-])c(C(F)(F)F)c4)CC3)CC2)cc1` (stereo not shown) [Example 82] was less than 1 µM; that for `O=C(COC1CCC(Nc2ccc([N+](=O)[O-])c(C(F)(F)F)c2)CC1)N1CCN(c2ccc(Cl)cc2)CC1` (stereo not shown) [Example 63] was less than 1 µM.
Take `O=C(COC1CCC(Nc2ccc([N+](=O)[O-])c(C(F)(F)F)c2)CC1)N1CCCN(c2ccc(C(F)(F)F)cc2)CC1` (stereo not shown) [Example 149]: the minimal effective concentration was less than 1 µM.

Staying with this test, now noted: Ascaridia galli, read-out: minimum effective concentration (MEC) against two or more of the tested nematodes, in vitro; A. galli L3, O. dentatum L3 and L4; 20 larvae per well; microscopic examination.
`O=C(CO[C@H]1CC[C@H](Nc2ccc([N+](=O)[O-])c(C(F)(F)F)c2)CC1)N1CCN(c2ccc(OCc3ccc(C(F)(F)F)cc3)cc2)CC1` [Example 20, 2-[trans-4-(4-nitro-3-trifluoromethyl-phenylamino)-cyclohexyloxy]-1-{4-[4-(4-trifluoromethyl-benzyloxy)-phenyl]-piperazin-1-yl}-ethanone]: the minimal effective concentration was less than 1 µM.
The same measure, in the same setting: the value for `CCC(OC1CCC(Nc2ccc([N+](=O)[O-])c(C(F)(F)F)c2)CC1)C(=O)N1CCN(c2ccc(C(F)(F)F)cc2)CC1` (stereo not shown) [Example 226] was less than 1 µM.
Still for that read-out and setting: the value for `O=C(CO[C@H]1CC[C@H](Nc2ccc([N+](=O)[O-])c(C(F)(F)F)c2)CC1)N1CCC(c2ccc(F)cc2F)CC1` [Example 22, 1-[4-(2,4-difluoro-phenyl)-piperidin-1-yl]-2-[trans-4-(4-nitro-3-trifluoromethyl-phenylamino)-cyclohexyloxy]-ethanone] was less than 1 µM.

Still in this test, the particulars now being: in vitro; A. galli L3, O. dentatum L3 and L4.
As to `O=C(CO[C@H]1CC[C@H](Nc2ccc([N+](=O)[O-])cc2C(F)(F)F)CC1)N1CCN(c2ccccc2)CC1` [Example 240], the “activity against the tested nematodes” value was “no detectable activity”.
